This note sets out measurements from patent US11214803B2, “Modulators of YAP1 expression” (Ionis Pharmaceuticals, Inc., priority 2019, dated 2022).

pIC50: −log10 of the molar value. Strand notation (5' to 3'): a small letter for the sugar, then the base; units joined by * are phosphorothioate-linked, units joined directly phosphodiester-linked; [ ] holds rarer units or linkages, { } end groups; capitals alone tell only the bases. k = constrained ethyl (cEt); [5mC] = 5-methylcytosine; d = 2'-deoxy (DNA)

For this data set, the system named is Yap1 mRNA. Nature of the data set: Dose-dependent inhibition of human Yap1 in A-431 cells (Example 8, 10,000 cells per well, RTS4814). The note with it: free uptake, approximately 48 hours, RTS4814; for Yap1 mRNA, % UTC: A-431 cells, 10,000 cells per well; for pIC50: A-431 cells, linear regression on log/linear plot. It is filed as cell-based. The method in brief:
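Yap1 mRNA, normalized to RIBOGREEN total RNA and expressed as % untreated control, was read with RTS4814 about 48 h after free-uptake oligonucleotide treatment of A-431 cells at 10,000 cells/well. IC50 derived by linear regression of log/linear data.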

Take “1075207 (k[5mC]*kT*kA*dT*dT*dA*dA*dA*dT*dG*dA*dG*d[5mC]*kA*k[5mC]*k[5mC]; antisense) [compound 1075207]”: the pIC50 (commonly −log10 of the IC50, conventionally taken in molar units) was 7.00. In addition, the “Yap1 mRNA, % UTC” value (31.3 nM) stood at 82 % UTC. In addition, the “Yap1 mRNA, % UTC” value (125.0 nM) is given as 51 % UTC. Further, for the setting “500.0 nM”, the “Yap1 mRNA, % UTC” value is given as 17 % UTC. Further, the “Yap1 mRNA, % UTC” value (2000.00 nM) is on record as 7 % UTC.
“1075785 (k[5mC]*kA*kT*dT*dT*dT*dA*dT*dA*dG*dG*dG*d[5mC]*k[5mC]*kA*kT; antisense) [compound 1075785]” had a pIC50 greater than 7.70. Moreover, the “Yap1 mRNA, % UTC” value (31.3 nM) is 29 % UTC. The “Yap1 mRNA, % UTC” value (125.0 nM) is 7 % UTC. For the same substance, the “Yap1 mRNA, % UTC” value (500.0 nM) stood at 3 % UTC. In addition, the “Yap1 mRNA, % UTC” value (2000.00 nM) is 3 % UTC.
The substance “1075401 (antisense k[5mC]*kG*kA*dT*dT*dA*dA*dA*dA*d[5mC]*dA*d[5mC]*dT*kG*kG*kT) [compound 1075401]” gave a pIC50 of 7.40. Further, the “Yap1 mRNA, % UTC” value (31.3 nM) came to 62 % UTC. For the same substance, the “Yap1 mRNA, % UTC” value (125.0 nM) amounted to 26 % UTC. The “Yap1 mRNA, % UTC” value (500.0 nM) is 11 % UTC. For the setting “2000.00 nM”, the “Yap1 mRNA, % UTC” value was 7 % UTC.
On the same counts, the results for “1074593 (DNA kA*kG*kG*dA*dG*d[5mC]*dA*dA*dG*dT*d[5mC]*dT*dT*kG*kT*kA) [compound 1074593]” are greater than 7.70, 50 % UTC, 20 % UTC, 9 % UTC and 8 % UTC.
On the same counts, the results for “1076552 (kA*kT*kG*dT*dA*dT*dA*dA*dA*dT*dA*d[5mC]*d[5mC]*kA*kG*kG; antisense) [compound 1076552]” are 7.00, 73 % UTC, 40 % UTC, 17 % UTC and 12 % UTC.
On the same counts, the results for “1075465 (antisense kG*kA*kT*dT*dT*dA*dT*dT*dG*dA*dA*d[5mC]*dT*kG*kA*kG) [compound 1075465]” are 7.00, 75 % UTC, 35 % UTC, 14 % UTC and 9 % UTC.
“1076386 (antisense kA*kG*kT*dT*dA*dT*dA*dA*d[5mC]*dA*dG*dT*dG*kT*kA*kA) [compound 1076386]”: the pIC50 is 7.40. Moreover, the “Yap1 mRNA, % UTC” value (31.3 nM) is 61 % UTC. Also, the “Yap1 mRNA, % UTC” value (125.0 nM) is reported as 30 % UTC. In addition, the “Yap1 mRNA, % UTC” value (500.0 nM) is given as 11 % UTC. For the same substance, the “Yap1 mRNA, % UTC” value (2000.00 nM) was 5 % UTC.
Substance “1074795 (k[5mC]*k[5mC]*kA*dA*dA*dT*d[5mC]*dA*dA*dT*dG*dT*dG*k[5mC]*kT*k[5mC]; antisense) [compound 1074795]” gave a pIC50 greater than 7.70. Further, under “31.3 nM”, the “Yap1 mRNA, % UTC” value is 38 % UTC. Where the note is “125.0 nM”, the “Yap1 mRNA, % UTC” value is 14 % UTC. Besides, where the note is “500.0 nM”, the “Yap1 mRNA, % UTC” value is given as 7 % UTC. Further, under “2000.00 nM”, the “Yap1 mRNA, % UTC” value came out at 5 % UTC.
Substance “1075686 (kG*kT*kA*dA*dT*dT*dA*d[5mC]*dA*dG*dT*dG*dT*k[5mC]*kT*k[5mC]; antisense) [compound 1075686]” had a pIC50 of 7.00. Moreover, the “Yap1 mRNA, % UTC” value (31.3 nM) turned out to be 72 % UTC. For the setting “125.0 nM”, the “Yap1 mRNA, % UTC” value stood at 44 % UTC. Besides, the “Yap1 mRNA, % UTC” value (500.0 nM) worked out at 18 % UTC. For the same substance, under “2000.00 nM”, the “Yap1 mRNA, % UTC” value came to 14 % UTC.
On the same counts, the results for “1076293 (kG*k[5mC]*kT*dT*dA*dT*dT*dA*dT*dT*dG*dA*dG*kT*kT*kA; antisense) [compound 1076293]” are greater than 7.70, 49 % UTC, 18 % UTC, 6 % UTC and 5 % UTC.
In turn, “1075233 (kG*kT*kA*dA*dT*dT*dT*dA*dT*d[5mC]*dA*dG*d[5mC]*k[5mC]*kA*kT; antisense) [compound 1075233]” showed a pIC50 greater than 7.70. Moreover, under “31.3 nM”, the “Yap1 mRNA, % UTC” value worked out at 45 % UTC. For the same substance, the “Yap1 mRNA, % UTC” value (125.0 nM) worked out at 12 % UTC. In addition, the “Yap1 mRNA, % UTC” value (500.0 nM) stood at 5 % UTC. Moreover, where the note is “2000.00 nM”, the “Yap1 mRNA, % UTC” value is on record as 3 % UTC.
Turning to “1074536 (kA*kG*kT*dA*dA*dT*dA*dG*d[5mC]*dT*d[5mC]*dT*dT*kT*k[5mC]*kT; antisense) [compound 1074536]”, the pIC50 was 7.40. The “Yap1 mRNA, % UTC” value (31.3 nM) came out at 64 % UTC. Besides, the “Yap1 mRNA, % UTC” value (125.0 nM) turned out to be 24 % UTC. Moreover, the “Yap1 mRNA, % UTC” value (500.0 nM) was 9 % UTC. The “Yap1 mRNA, % UTC” value (2000.00 nM) was determined as 6 % UTC.
On the same counts, the results for “1075781 (k[5mC]*kA*kT*dA*dT*dA*dT*dT*dG*dT*dG*dA*d[5mC]*kT*kT*k[5mC]; antisense) [compound 1075781]” are greater than 7.70, 52 % UTC, 15 % UTC, 4 % UTC and 3 % UTC.
On the same counts, the results for “1075816 (kT*kA*kG*dT*dA*dT*dA*dA*dA*dG*d[5mC]*dA*dG*kG*kG*k[5mC]; antisense) [compound 1075816]” are 7.00, 66 % UTC, 29 % UTC, 12 % UTC and 8 % UTC.
The like results for “1076489 (k[5mC]*kA*kA*dA*dA*dT*dA*dG*dG*dT*dG*dA*dG*kT*k[5mC]*kA; antisense) [compound 1076489]” were, in that order, greater than 7.70, 43 % UTC, 13 % UTC, 4 % UTC and 3 % UTC.
Substance “1074850 (kT*kT*kG*dT*dT*dA*dT*dG*dA*dT*dA*dG*dG*k[5mC]*kA*k[5mC]; antisense) [compound 1074850]” showed a pIC50 of 7.40. Further, the “Yap1 mRNA, % UTC” value (31.3 nM) was 63 % UTC. Moreover, under “125.0 nM”, the “Yap1 mRNA, % UTC” value is 20 % UTC. The “Yap1 mRNA, % UTC” value (500.0 nM) was 7 % UTC. Also, the “Yap1 mRNA, % UTC” value (2000.00 nM) is reported as 5 % UTC.
On the same counts, the results for “1075819 (kG*kT*kA*dT*dA*dT*d[5mC]*d[5mC]*dG*dT*dT*d[5mC]*dT*k[5mC]*kA*kT; antisense) [compound 1075819]” are greater than 7.70, 48 % UTC, 18 % UTC, 7 % UTC and 5 % UTC.
As for “1076294 (kT*kA*kT*dA*dT*dT*dA*dG*dT*dG*d[5mC]*d[5mC]*d[5mC]*k[5mC]*k[5mC]*kT; antisense) [compound 1076294]”, the pIC50 is 7.00. The “Yap1 mRNA, % UTC” value (31.3 nM) came out at 76 % UTC. In addition, for the setting “125.0 nM”, the “Yap1 mRNA, % UTC” value stood at 50 % UTC. Besides, the “Yap1 mRNA, % UTC” value (500.0 nM) stood at 21 % UTC. Moreover, the “Yap1 mRNA, % UTC” value (2000.00 nM) is reported as 11 % UTC.
“1075748 (kG*kT*kA*dA*dA*dT*d[5mC]*dA*dA*dG*dT*dT*dG*k[5mC]*kA*kT; antisense) [compound 1075748]” showed a pIC50 of 7.00. The “Yap1 mRNA, % UTC” value (31.3 nM) was found to be 81 % UTC. Besides, the “Yap1 mRNA, % UTC” value (125.0 nM) amounted to 36 % UTC. The “Yap1 mRNA, % UTC” value (500.0 nM) turned out to be 12 % UTC. Besides, the “Yap1 mRNA, % UTC” value (2000.00 nM) is 7 % UTC.
The like results for “1075689 (k[5mC]*kA*kA*d[5mC]*dT*dA*dT*dA*d[5mC]*dA*dA*dG*dG*k[5mC]*kA*kA; antisense) [compound 1075689]” were, in that order, 6.70, 97 % UTC, 59 % UTC, 19 % UTC and 8 % UTC.
The like results for “1076327 (kG*kA*kT*dA*dA*dG*d[5mC]*dA*dA*dG*dG*dT*dT*k[5mC]*kT*k[5mC]; antisense) [compound 1076327]” were, in that order, 7.00, 73 % UTC, 38 % UTC, 17 % UTC and 9 % UTC.
On the same counts, the results for “1076070 (kA*kT*kT*dA*dG*dT*dA*dA*dT*dG*d[5mC]*dA*d[5mC]*kA*kG*kG; antisense) [compound 1076070]” are greater than 7.70, 55 % UTC, 17 % UTC, 8 % UTC and 6 % UTC.
Take “1074792 (kA*kT*k[5mC]*dA*dA*dT*dG*dT*dG*d[5mC]*dT*d[5mC]*d[5mC]*kA*kT*k[5mC]; antisense) [compound 1074792]”: the pIC50 was greater than 7.70. The “Yap1 mRNA, % UTC” value (31.3 nM) amounted to 48 % UTC. Further, the “Yap1 mRNA, % UTC” value (125.0 nM) was 17 % UTC. The “Yap1 mRNA, % UTC” value (500.0 nM) is 7 % UTC. Moreover, the “Yap1 mRNA, % UTC” value (2000.00 nM) is reported as 5 % UTC.
On the same counts, the results for “1075810 (kG*kT*kA*dG*d[5mC]*dA*dA*dT*dA*dG*dA*dG*dT*kA*kA*k[5mC]; antisense) [compound 1075810]” are 7.00, 67 % UTC, 28 % UTC, 12 % UTC and 7 % UTC.
Turning to “1076456 (k[5mC]*kT*kT*dT*dA*dA*dA*dG*dT*dG*dT*dA*dT*kG*kT*k[5mC]) [compound 1076456]”, the pIC50 is greater than 7.70. Moreover, the “Yap1 mRNA, % UTC” value (31.3 nM) was 43 % UTC. The “Yap1 mRNA, % UTC” value (125.0 nM) is 14 % UTC. Further, the “Yap1 mRNA, % UTC” value (500.0 nM) stood at 5 % UTC. For the same substance, the “Yap1 mRNA, % UTC” value (2000.00 nM) is listed as 3 % UTC.
